# Source: paper PMC9959817, “Flow-Based Fmoc-SPPS Preparation and SAR Study of Cathelicidin-PY Reveals Selective Antimicrobial Activity” (Molecules, 2023)
# Where a SMILES comes first, the peptide text is derived from it. Bridges are numbered along the chain shown (N, C = ends).
# Key:
# Pseudomonas aeruginosa = conditions: isolation report, assays in Luria Broth (LB); cited from earlier work
# Description: (§1) Furthermore, these have shown promising anti-inflammatory and specific immune modulatory capabilities in immunocytes, as well as antiviral activity against human immunodeficiency virus (HIV), influenza A virus (I ...
# Staphylococcus aureus = conditions: isolation report, assays in Luria Broth (LB); cited from earlier work
# Description: as §1
# Escherichia coli = conditions: isolation report, assays in Luria Broth (LB); cited from earlier work
# Description: as §1
# Candida albicans = conditions: isolation report; cited from earlier work
# Description: as §1
# C. albicans (SC5314) = test: microbe, parasite or virus in culture; assay type: cell-based, Candida albicans; conditions: SC5314; read-out: Minimum Inhibitory Concentration
# Description: (§2) As we were primarily interested in the clinical potential of cathelicidin-PY (1) and its analogues 2–9, cation-adjusted Mueller-Hinton broth (CAMHB) was implemented during our in vitro antimicrobial screening towards bacteria. However, non-cation adjusted Mueller Hinton broth (MHB) was also implemented to evaluate the cation sensitivity of these AMPs. In each medium, compounds 1–9 were subjected to minimum inhibitory concentration (MIC) assays with E. coli (ATCC 25922), P. aeruginosa (SVB-B9), and S. aureus (ATCC 29213), in accordance with CLSI microbroth dilution protocols (Table 1). It is noteworthy, however, that the initial report of cathelicidin-PY’s isolation documented MIC assays performed in Luria Broth (LB). Furthermore, antifungal activity towards C. albicans was investigated.
# Antimicrobial susceptibility of Candida albicans SC5314 (type strain) was assessed by broth microdilution in RPMI 1640 media in accordance with the CLSI recommended protocols. All assays were performed independently on three occasions, with the reported MIC defined as the lowest concentration for which agreement was observed consistently for all replicates.
# S. aureus (ATCC 29213) = test: microbe, parasite or virus in culture; assay type: cell-based, Staphylococcus aureus; conditions: ATCC 29213; read-out: Minimum Inhibitory Concentration
# Description: as §2
# Staphylococcus aureus ATCC 29213, Pseudomonas aeruginosa (SVB-B9) (type strain), and Escherichia coli ATCC 25,922 were grown in either non-cation-adjusted or cation-adjusted Mueller Hinton (MH) broth at 37 °C with shaking (200 rpm). MIC assays were performed in technical triplicate in accordance with the CLSI-recommended protocol. All assays were performed independently on three occasions, with the reported MIC defined as the lowest concentration for which agreement was observed consistently for all replicates.
compound,measurement,setting,value
"CC[C@H](C)[C@H](NC(=O)[C@H](Cc1c[nH]cn1)NC(=O)[C@H](CO)NC(=O)[C@@H](NC(=O)[C@@H](NC(=O)[C@@H](NC(=O)[C@@H](NC(=O)[C@H](CCCNC(=N)N)NC(=O)[C@H](CC(C)C)NC(=O)[C@H](CCCCN)NC(=O)[C@H](CCC(=O)O)NC(=O)[C@H](CCCCN)NC(=O)[C@H](CC(C)C)NC(=O)[C@H](CCCCN)NC(=O)[C@@H]1CSSC[C@H](NC(=O)[C@H](CCCCN)NC(=O)[C@@H](N)CCCNC(=N)N)C(=O)N[C@@H](CC(N)=O)C(=O)N[C@@H](Cc2ccccc2)C(=O)N[C@@H](CC(C)C)C(=O)N1)[C@@H](C)O)C(C)C)[C@@H](C)CC)[C@@H](C)O)C(=O)N[C@@H](CC(=O)O)C(=O)N[C@@H](CCCCN)C(=O)N[C@H](C(=O)N[C@@H](CC(C)C)C(=O)N[C@@H](CCCNC(=N)N)C(=O)N1CCC[C@H]1C(=O)N[C@@H](CCC(N)=O)C(=O)NCC(=O)O)C(C)C [Compound 1, Cathelicidin-PY] (H-RKCNFLCKLKEKLRTVITSHIDKVLRPQG-OH; disulfide 3-7)",MIC,Pseudomonas aeruginosa,5.48 µM
same,MIC,Staphylococcus aureus,2.74 µM
same,MIC,Escherichia coli,1.37 µM
same,MIC,Candida albicans,1.37 µM
same,MIC,C. albicans (SC5314),>64 µM
same,MIC,S. aureus (ATCC 29213),>64 µM
